Read-outs that look alike come from different tables or passages of the source. Where no end group is shown, it is not given here.
What was measured:
mice [1] = settings: 50 mgs/kg, ref Okamura et al., 2008; cited from earlier work
[2] = ref Okamura et al., 2008; cited from earlier work
mice [3] = settings: administered into the amygdala in mice; ref Jungling et al., 2008; cited from earlier work
Swiss mice = experiment: Mouse righting reflex recovery test, Swiss mice; type: in vivo; settings: diazepam 15 mg/kg i.p., 16 mice per group
NPSR^+/+ mice = experiment: Mouse righting reflex recovery test, NPSR^+/+ mice; type: in vivo; settings: diazepam 15 mg/kg i.p.
NPSR^-/- mice = experiment: Mouse righting reflex recovery test, NPSR^-/- mice; type: in vivo; settings: diazepam 15 mg/kg i.p.
native hPAR2 = molecular target: T1, native hPAR2 (Homo sapiens, UniProt P55085); experiment: Selectivity: calcium mobilization, native hPAR2 in A549 cells; type: cell-based
T1 sequence (P55085 26-397): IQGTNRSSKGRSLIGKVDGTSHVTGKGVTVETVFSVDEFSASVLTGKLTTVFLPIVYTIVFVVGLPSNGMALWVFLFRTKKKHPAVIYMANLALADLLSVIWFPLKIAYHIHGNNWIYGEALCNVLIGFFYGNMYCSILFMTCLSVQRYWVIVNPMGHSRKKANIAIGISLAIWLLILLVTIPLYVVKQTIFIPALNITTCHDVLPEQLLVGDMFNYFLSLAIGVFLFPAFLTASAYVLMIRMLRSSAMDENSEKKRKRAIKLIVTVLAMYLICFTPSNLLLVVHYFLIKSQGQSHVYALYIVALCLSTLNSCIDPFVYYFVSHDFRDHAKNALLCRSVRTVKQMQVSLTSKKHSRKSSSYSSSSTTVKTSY

Compound: O=C(NCc1ccc(F)cc1)N1CCN2C(=O)OC(c3ccccc3)(c3ccccc3)C2C1 (centres unmarked) [SHA 68, 3-oxo-1,1-diphenyl-tetrahydro-oxazolo[3,4-a]pyrazine-7-carboxylic acid 4-fluoro-benzylamide]
- effect on NPS-stimulated locomotion (mice [1]): able to partially counteract the stimulatory effects of NPS on locomotion
- blood brain barrier penetration [2]: limited blood brain barrier penetration
- effect on anxiety and extinction of conditioned fear responses (mice [3]): exerts functionally opposing responses

Compound: CN1C(=O)CN=C(c2ccccc2)c2cc(Cl)ccc21 [diazepam]
- percent of animals losing the righting reflex (Swiss mice): 92%
- percent of animals losing the righting reflex (NPSR^+/+ mice; 10-12 mice per group): 100%
- sleeping time (time to regain the RR) (NPSR^+/+ mice; mean ± sem of 10-12 mice): 180 ± 18 min
- percent of animals losing the righting reflex (NPSR^-/- mice; 10-12 mice per group): 100%
- sleeping time (time to regain the RR) (NPSR^-/- mice; mean ± sem of 10-12 mice): 211 ± 19 min

Compound: SLIGKV-NH2 [SLIGKV-NH2]
- EC50 (native hPAR2): 21.9 µM
- Emax (native hPAR2; A549, read-out: Emax, control): 449 ± 25%
- Emax (native hPAR2; A549, read-out: Emax, in presence of [D-Cys(tBu)^5]NPS 10 μM): 433 ± 37%
